How the values were obtained:
[1] = test system: CCD 841 CoN cells; test: Trypan Blue exclusion viability assay, normal colon epithelial cells; type: cell-based; details: 10 μM, 48 hours
[2] = test system: MC38 and CT26; test: Alamar Blue cell viability assay, mouse CRC cell lines; type: cell-based; details: 72 hours
Protocol: FIGS. 5A-5F show AP-4-139B is efficacious against CRC in an immunocompetent model, and causes immune cell recruitment. FIGS. 5A-5B: Mouse CRC cell lines, MC38 (FIG. 5A) and CT26 (FIG. 5B), were plated at a density of 1,000 cells per well in 96-well plates. The next day, cells were treated with the indicated inhibitors for 72 hours. Cells were then subjected to the Alamar Blue cell viability assays. Shown are representative IC50 values of an average of six technical replicates and two biological replicates. FIG. 5C: Mouse CRC cell lines MC38 and CT26 were treated with 10 μM AP-4-139B for 24 or 48 hours and immunoblotted for HSP70, p53, AKT, Cleaved Lamin A (CLA), Cleaved Caspase 3, MRPS14, and GAPDH (loading control). The doublet detected for HSP70 is seen in other murine cell lines, and may represent a degradation product or post-translational modification. FIG. 5D: 1×10^6 MC38 cells were injected subcutaneously into the right flank of 6-8 week old male C57Bl/6 mice. Once tumors reached an approximate volume of 50 mm^3, mice were separated randomly into two groups: vehicle vs. AP-4-139B. Mice were treated with 10 mg/kg AP-4-139B every 48 hours. All mice were euthanized 20 days after the start of treatment. Tumor volumes were recorded using digital calipers and using the formula v=length×width^2×0.52. *** p<0.001. n=15 mice per group.

[3] = test system: HT-29 tumor xenografts; test: HT-29 tumor xenograft in NSG mice; type: in vivo; details: 12.5 mg/kg three times per week
Protocol: FIGS. 4A-4F show AP-4-139B is efficacious as a single agent against human CRC in vitro and in vivo. FIG. 4A: Three CRC cell lines (HT-29, LS411N, and SW620) were treated with 10 μM of PET-16 or AP-4-139B for 48 hours. Cell were then subjected to viability assays using Trypan Blue exclusion. *** p<0.001. […] FIGS. 4B-4C: A panel of six CRC cell lines (SW620, HT-29, HCT 116+/−p53, RKO, and LS411N) were plated at a density of 1,000 cells per well in 96-well plates. The next day, cells were treated with the indicated inhibitors for 72 hours. Cells were then subjected to the Alamar Blue cell viability assays. Shown are representative IC50 values of an average of six technical replicates and two biological replicates. FIG. 4D: 2.5×10^6 HT-29 cells were injected subcutaneously into the right flank of NSG mice. Once tumors reached an approximate volume of 100 mm^3, mice were separated randomly into two groups: control vs. AP-4-139B. Mice were treated with 12.5 mg/kg AP-4-139B three times a week. All mice were euthanized 22 days after the start of treatment. Tumor volumes were recorded using digital calipers and using the formula v=length×width^2×0.52. *** p<0.001. n=10 mice per group. FIG. 4E: Immunohistochemistry (IHC) analysis of HT-29 xenograft tumors treated with AP-4-139B. Shown are representative images (4-6 random fields of view per condition) of Ki67 (proliferation) and Cleaved Lamin A (cell death). n=4 mice per group. Scale bar=100 μm. Respective IgG antibody was used as the negative control.
FIGS. 8A-8E show HSP70 inhibition is effective on mouse CRC cell lines. FIG. 8A: Association of HSPA1A gene expression and survival rate of patients with colorectal adenocarcinoma (COAD). Patient data was gathered from USCS Xena platform (GDC-TCGA COAD; n=435). Log-rank test was used to determine significance. p=0.0004. FIG. 8B: Association of HSPA1A gene expression and stage of COAD (n=440). Wilcoxon rank sum test was used to determine significance. * p<0.05, *** p<0.001. FIG. 8C: Body weights of mice injected with HT-29 tumor xenografts. Weights were measured at the start of the treatment to determine mouse toxicity. n.s. not significant, n=10 mice per group. FIG. 8D: H&E staining of livers and colons of mice injected with HT-29 tumor xenografts. Tissues were collected at the end of the study. FIG. 8E. Pharmacokinetic values of AP-4-139B in the liver, plasma, and brain from three CDI mice treated with 10 mg/kg of compound.
Shown are representative images of COXIV and a-SMA. n=5 mice per group. Scale bar=100 μm.
All studies were carried out in accordance with the recommendations in the Guide for the Care and Use of Laboratory Animals of the National Institutes of Health (NIH). All protocols were approved by The Wistar Institute Institutional Animal Care and Use Committee (IACUC). Mice were housed in plastic cages with ad libitum diet and maintained with a 12-hour dark/12-hour light cycle at 22° C. For human xenograft studies, 2.5×10^6 HT-29 cells were injected subcutaneously into the right flanks of 6-8 week old male NSG (NOD.Cg-Prkdcscid II2rgtm1 Wjl/SzJ) mice. For mouse xenograft studies, 1×10^6 MC38 cells were subcutaneously into the right flanks of 6-8 week old male C57Bl/6J mice. Tumor volumes were measured using digital calipers and tumor volume was calculated using the formula: volume=(length×width^2)×0.52. All mice were monitored daily for signs of pain or distress.

[4] = test system: MC38 cells; test: Membrane associated calreticulin analysis by flow cytometry; type: cell-based, mouse; details: 24 hours
Protocol: FIG. 6D: MC38 cells were treated with 5 μM AP-4-139B for 24 hours and subjected to flow cytometry, using Alexa488-tagged calreticulin antibody. *** p<0.001, n=4 biological replicates performed in duplicate. FIG. 6E: MC38 cells were treated with increasing concentrations of AP-4-139B, G-TPP, 17-AAG or Metformin for 3 hours and then assayed for extracellular ATP release. Three independent cultures were assayed for each treatment, and DMSO-treated cells were used as internal controls. Error bars represent standard deviation (SD).
Flow cytometry was used to detect calreticulin localization after exposure to Doxorubicin (positive control) or AP-4-139B. MC38 cells were plated at a density of 3×10^5 cells per well in 6-well plates. The following day, cells were treated with 1 μM of doxorubicin, 15 μM of AP-4-139B (MC38), or 5 μM of AP-4-139B (CT26). After 24 hours, cells were collected and stained with anti-CRT antibody (ab196158) (Abcam) diluted in a solution of 1% FBS in PBS for 30 minutes on ice in the dark. Cells were then washed with PBS and stained with DAPI (1 μg/mL) for 5 minutes prior to analysis. Samples were analyzed using a FACSCelesta (Becton Dickinson) flow cytometer. […] Fluorescent intensity of DAPI negative cells was measured and at least 10,000 events in the analysis gate were obtained.

## c1ccc(-c2cn3nc(CCCCCC[P+](c4ccccc4)(c4ccccc4)c4ccccc4)sc3n2)cc1 [AP-4-139B, Triphenyl(6-(6-phenylimidazo[2,1-b][1,3,4]thiadiazol-2-yl)hexyl)phosphonium bromide]
[1]
  toxicity to normal colon epithelial cells: far less sensitive
[2]
  IC50s in murine CRC lines (in words): comparable to that of oxaliplatin
[3]
  Ki-67 staining in tumors: reduced staining for Ki-67
  cleaved lamin A staining in tumors (apoptosis): increased staining for cleaved lamin A
  loss of mitochondria in treated tumors (COX IV staining): No evidence was found that AP-4-139B caused obvious loss of mitochondria
  progression of HT-29 tumor xenografts: significantly reduced the progression of HT-29 tumor xenografts
  toxicity (weight loss, liver or colon architecture): No evidence for toxicity
[4]
  calreticulin mobilization to the plasma membrane: calreticulin mobilization to the plasma membrane

Reference: patent US12616753B2, “HSP70 inhibitors and methods of using same” (THE WISTAR INSTITUTE, priority 2020, dated 2026)
